Laboratory results from US20090306201A1, “SELECTIVE INHIBITORS FOR TRANSFERASES” (University of Medicine and Dentistry of New Jersey, priority 2006, published 2009).
Where a name gives a salt, the structure may show the parent alone. Read-outs that look alike come from different tables or passages of the source.

Experiments:
[1] = target: T1, EZH2 (Homo sapiens, UniProt Q15910); assay: HKMT-inhibitor (HMT) assay, EZH2; assay type: biochemical, Mammalian; settings: meaning of the pair not explained
T1 construct: made in house
Protocol: (§1) Compounds were initially screened for their ability to inhibit the activity of various lysine methyltransferases in vitro using a biochemical HMT-assay. Mammalian HKMTs were produced and purified as recombinant affinity-tagged proteins using a bacterial or baculovirus expression system.
(§2) The HKMT-inhibitor assay was as follows: In a final reaction volume of 25 μl, 50-100 ng recombinant HKMT protein was incubated at 30° C. for 60 minutes in a reaction buffer containing 50 mM Tris-HCl, pH 8.5, 5 mM MgCl2, 4 mM DTT, 1 μM [^3H]-labeled S-adenosyl-L-methionine ([^3H]SAM, 82.0 Ci/mmol, 1.0 mCi/ml, Amersham Pharmacia Biotech) and 2 μg of substrate (histone octamers or oligonucleosomes). A constant HKMT protein concentration was tested against increasing amounts of compound dissolved in DMSO. As a control an HKMT-inhibitor assay was performed in the presence of 0.5 μl of DMSO (end concentration of DMSO in the reaction= 2%). The reaction was stopped by the addition of 6 μl 5×SDS sample buffer (60 mM Tris-HCl, pH 6.8, 25% glycerol, 2% SDS, 0.05% bromphenol blue, 14.4 mM 6-Mercaptoethanol), and the proteins were separated on a 12% SDS-polyacrylamide gel. Proteins were transferred onto an Immobilon-P membrane (Millipore) and visualized by Coomassie blue staining. The membrane was then sprayed with EN3HANCE (NEN) and exposed to Kodak XAR film overnight. Coomassie blue stained histone bands were cut from the membrane and subjected to scintillation counting. All assays were performed in duplicate and the average of two experiments was used for the calculation of IC50 values. Only compounds with IC50<10 μM were selected for further experiments.

[2] = target: T2, SET7/9 (Homo sapiens, UniProt Q8WTS6); assay: HKMT-inhibitor (HMT) assay, SET7/9; assay type: biochemical, Mammalian; settings: recombinant HKMT, [3H]SAM, histone octamers or oligonucleosomes, average of duplicate
T2 construct: made in house
T2 sequence (Q8WTS6 1-366): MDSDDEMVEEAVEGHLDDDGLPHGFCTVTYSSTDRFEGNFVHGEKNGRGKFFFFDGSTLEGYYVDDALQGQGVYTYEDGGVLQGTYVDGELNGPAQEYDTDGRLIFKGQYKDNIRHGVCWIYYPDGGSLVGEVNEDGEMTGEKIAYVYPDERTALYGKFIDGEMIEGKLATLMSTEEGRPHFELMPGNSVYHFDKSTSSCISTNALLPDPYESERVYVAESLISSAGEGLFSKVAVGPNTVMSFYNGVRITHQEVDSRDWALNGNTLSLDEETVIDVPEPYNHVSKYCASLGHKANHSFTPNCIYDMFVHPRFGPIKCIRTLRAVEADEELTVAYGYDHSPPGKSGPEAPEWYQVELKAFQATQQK
Protocol: as §1
as §2, with “Coomassie blue stained histone bands were cut from the membrane and subjected to scintillation counting. All assays were performed in duplicate and the average of two experiments was used for the calculation of IC50 values. Only compounds with IC50<10 μM were selected for further experiments.” left out

[3] = target: T3, G9a (Homo sapiens, UniProt Q96KQ7); assay: HKMT-inhibitor (HMT) assay, G9a; assay type: biochemical, Mammalian; settings: recombinant HKMT, [3H]SAM, histone octamers or oligonucleosomes, average of duplicate
T3 construct: made in house
T3 sequence (Q96KQ7 1-1210): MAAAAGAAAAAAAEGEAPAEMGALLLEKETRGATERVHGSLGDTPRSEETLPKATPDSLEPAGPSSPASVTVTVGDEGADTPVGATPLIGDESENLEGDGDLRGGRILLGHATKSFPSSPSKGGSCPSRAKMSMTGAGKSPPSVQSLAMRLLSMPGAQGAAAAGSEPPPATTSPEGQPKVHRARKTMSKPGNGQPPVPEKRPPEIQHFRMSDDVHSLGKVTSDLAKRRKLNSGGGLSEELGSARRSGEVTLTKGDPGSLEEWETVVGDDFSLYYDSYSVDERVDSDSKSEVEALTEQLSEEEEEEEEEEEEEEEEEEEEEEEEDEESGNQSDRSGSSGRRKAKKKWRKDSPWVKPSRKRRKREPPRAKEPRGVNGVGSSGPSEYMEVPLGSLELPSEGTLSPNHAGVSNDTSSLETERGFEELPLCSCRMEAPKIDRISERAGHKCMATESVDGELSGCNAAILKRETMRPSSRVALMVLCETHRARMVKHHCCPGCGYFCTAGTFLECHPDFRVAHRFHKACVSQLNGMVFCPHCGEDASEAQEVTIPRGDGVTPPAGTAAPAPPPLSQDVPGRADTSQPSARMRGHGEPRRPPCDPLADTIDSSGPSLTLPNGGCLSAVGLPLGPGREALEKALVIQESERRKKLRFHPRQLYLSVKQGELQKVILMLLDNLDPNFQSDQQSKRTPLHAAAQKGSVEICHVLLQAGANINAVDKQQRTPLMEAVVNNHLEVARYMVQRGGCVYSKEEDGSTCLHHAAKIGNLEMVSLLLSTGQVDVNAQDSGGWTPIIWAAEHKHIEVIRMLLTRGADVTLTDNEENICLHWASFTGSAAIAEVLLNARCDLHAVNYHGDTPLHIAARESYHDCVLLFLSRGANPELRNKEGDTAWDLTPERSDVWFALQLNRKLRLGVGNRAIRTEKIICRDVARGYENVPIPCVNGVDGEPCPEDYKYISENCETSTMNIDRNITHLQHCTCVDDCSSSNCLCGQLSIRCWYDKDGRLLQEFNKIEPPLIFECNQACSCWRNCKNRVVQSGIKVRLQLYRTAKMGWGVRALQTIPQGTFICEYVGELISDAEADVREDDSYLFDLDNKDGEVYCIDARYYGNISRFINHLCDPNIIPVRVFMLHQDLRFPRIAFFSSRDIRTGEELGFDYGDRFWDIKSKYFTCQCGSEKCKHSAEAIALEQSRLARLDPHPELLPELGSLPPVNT
Protocol: as §1
as §2, with “Coomassie blue stained histone bands were cut from the membrane and subjected to scintillation counting. All assays were performed in duplicate and the average of two experiments was used for the calculation of IC50 values. Only compounds with IC50<10 μM were selected for further experiments.” left out

[4] = system: global histone H4 lysine 20 monomethylation (H4K20me1); assay: Global histone lysine methylation pattern in treated cells, immunoblot, H4K20me1; assay type: cell-based; settings: HeLa cells, acid-extracted histones, immunoblotting
Protocol: (§3) Compounds that show low IC50 values for specific inhibition of single HKMTs were pre-selected for cell culture based toxicity and growth inhibition. HeLa cells were seeded in a concentration of 1×10^5 cell/ml in Dulbecco's modified Eagle medium supplemented with 10% Bovine serum, 2 mM glutamine, and penicillin-streptomycin solution. After 24 hours, the medium was supplemented with various compound concentrations. After an additional 48 hours, cells were harvested. Viable cells were stained with Trypan-Blue and counted. Based on the number of living cells treated with a compound in comparison to the cell number of cells treated with DMSO, a toxicity index was calculated for each compound.
(§4) Compounds with a low toxicity index were used for cell viability tests (FIG. 3). The cells harvested from this cell viability test were analyzed using two techniques. In the first technique, living cells were counted as described above and growth curves plotted for cells treated with DMSO or a given compound. (FIG. 4). In the second technique, histones were isolated from cells upon treatment of compounds, and their effect on global histone lysine methylation patterns was analyzed. Harvested cells were subjected to an acid extraction procedure for histones. […] Histones were resolved by SDS-PAGE, transferred to nitrocellulose, and analyzed by immunoblotting using histone-modification-state specific antibodies.

[5] = system: H3K27me3; assay: Global histone lysine methylation pattern in treated cells, immunoblot, other marks (H3K27me3); assay type: cell-based; settings: HeLa cells, acid-extracted histones, immunoblotting
Protocol: as §3, §4

[6] = target: T4, PRSET-7 (Homo sapiens, UniProt Q9NQR1); assay: HKMT-inhibitor (HMT) assay, PRSET-7; assay type: biochemical, Mammalian; settings: recombinant HKMT, [3H]SAM, histone octamers or oligonucleosomes, average of duplicate
T4 construct: made in house
T4 sequence (Q9NQR1 1-393): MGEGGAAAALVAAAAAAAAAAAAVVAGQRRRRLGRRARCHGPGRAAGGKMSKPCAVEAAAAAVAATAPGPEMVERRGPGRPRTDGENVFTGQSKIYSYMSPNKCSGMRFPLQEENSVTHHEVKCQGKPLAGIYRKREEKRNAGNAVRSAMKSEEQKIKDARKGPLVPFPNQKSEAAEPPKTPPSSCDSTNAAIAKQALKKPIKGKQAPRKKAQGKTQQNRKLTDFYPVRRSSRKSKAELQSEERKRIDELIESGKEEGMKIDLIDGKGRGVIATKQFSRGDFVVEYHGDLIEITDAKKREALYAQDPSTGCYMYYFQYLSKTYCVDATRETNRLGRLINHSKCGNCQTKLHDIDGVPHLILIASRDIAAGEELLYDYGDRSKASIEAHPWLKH
Protocol: as §1
as §2, with “Coomassie blue stained histone bands were cut from the membrane and subjected to scintillation counting. All assays were performed in duplicate and the average of two experiments was used for the calculation of IC50 values. Only compounds with IC50<10 μM were selected for further experiments.” left out

[7] = first of two values printed as x/y, read-out: IC50 EZH2 (first value of cell)
[8] = second of two values printed as x/y, read-out: IC50 EZH2 (second value of cell)

T1 sequence (Q15910 whole entry, species assumed): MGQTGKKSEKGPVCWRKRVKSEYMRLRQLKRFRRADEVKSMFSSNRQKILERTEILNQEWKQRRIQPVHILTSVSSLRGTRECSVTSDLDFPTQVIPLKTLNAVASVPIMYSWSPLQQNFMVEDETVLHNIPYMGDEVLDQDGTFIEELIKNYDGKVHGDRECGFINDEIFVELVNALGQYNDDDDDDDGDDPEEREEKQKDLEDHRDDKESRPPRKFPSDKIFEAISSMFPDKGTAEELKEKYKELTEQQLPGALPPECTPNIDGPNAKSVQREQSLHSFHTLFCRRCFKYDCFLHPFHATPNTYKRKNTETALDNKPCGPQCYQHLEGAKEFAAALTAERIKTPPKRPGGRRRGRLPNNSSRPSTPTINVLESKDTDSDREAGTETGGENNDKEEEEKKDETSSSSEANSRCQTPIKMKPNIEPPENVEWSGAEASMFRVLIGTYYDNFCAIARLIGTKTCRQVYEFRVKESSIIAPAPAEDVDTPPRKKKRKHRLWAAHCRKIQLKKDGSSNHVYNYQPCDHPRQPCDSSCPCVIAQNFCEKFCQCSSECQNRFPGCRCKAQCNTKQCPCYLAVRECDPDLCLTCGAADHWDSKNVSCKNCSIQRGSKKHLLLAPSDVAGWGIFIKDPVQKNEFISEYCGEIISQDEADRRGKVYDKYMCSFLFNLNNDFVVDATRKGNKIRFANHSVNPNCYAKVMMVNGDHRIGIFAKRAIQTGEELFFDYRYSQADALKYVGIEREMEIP
T1 sequence (O75530 whole entry partner, species assumed): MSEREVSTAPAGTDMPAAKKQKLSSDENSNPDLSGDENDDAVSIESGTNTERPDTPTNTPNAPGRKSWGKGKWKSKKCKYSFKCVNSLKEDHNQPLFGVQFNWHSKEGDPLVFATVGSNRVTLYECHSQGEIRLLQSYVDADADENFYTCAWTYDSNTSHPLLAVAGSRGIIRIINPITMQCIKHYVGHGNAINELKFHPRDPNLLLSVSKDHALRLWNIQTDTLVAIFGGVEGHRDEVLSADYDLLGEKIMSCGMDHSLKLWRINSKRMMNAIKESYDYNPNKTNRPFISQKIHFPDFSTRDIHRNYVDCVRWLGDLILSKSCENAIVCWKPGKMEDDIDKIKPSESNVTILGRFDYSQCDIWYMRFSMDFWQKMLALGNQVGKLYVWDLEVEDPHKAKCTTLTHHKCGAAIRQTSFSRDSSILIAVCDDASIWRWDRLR
T1 sequence (Q15022 whole entry partner, species assumed): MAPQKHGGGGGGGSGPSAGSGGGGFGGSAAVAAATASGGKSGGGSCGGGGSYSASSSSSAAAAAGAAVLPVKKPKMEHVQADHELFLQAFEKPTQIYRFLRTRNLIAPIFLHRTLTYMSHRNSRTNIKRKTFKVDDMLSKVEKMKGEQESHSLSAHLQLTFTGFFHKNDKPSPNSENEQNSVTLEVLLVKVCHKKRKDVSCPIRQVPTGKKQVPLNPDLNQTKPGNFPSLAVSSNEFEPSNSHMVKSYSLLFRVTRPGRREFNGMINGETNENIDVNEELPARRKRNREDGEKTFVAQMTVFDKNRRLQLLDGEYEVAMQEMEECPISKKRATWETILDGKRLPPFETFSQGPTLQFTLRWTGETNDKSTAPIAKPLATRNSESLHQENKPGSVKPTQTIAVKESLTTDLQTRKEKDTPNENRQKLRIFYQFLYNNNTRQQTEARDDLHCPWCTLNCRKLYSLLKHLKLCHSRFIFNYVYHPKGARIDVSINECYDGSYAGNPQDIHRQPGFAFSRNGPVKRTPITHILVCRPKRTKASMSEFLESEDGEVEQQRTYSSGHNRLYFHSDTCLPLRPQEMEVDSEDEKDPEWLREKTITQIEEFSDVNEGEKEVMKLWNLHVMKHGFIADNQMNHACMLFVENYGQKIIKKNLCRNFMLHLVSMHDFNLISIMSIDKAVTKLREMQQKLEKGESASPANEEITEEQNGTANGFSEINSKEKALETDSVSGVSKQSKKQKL

Row | melting point | IC50 [1, 7] [µM] | IC50 [1, 8] [µM] | IC50 [2] [µM] | IC50 [3] [µM] | IC50 [6] [µM] | SMILES | global histone H4 lysine 20 monomethylation (H4K20me1) [4] | other histone methylation marks (e.g. H3K27me3) [5]
1 | > 250 °C (dec.) | – | – | – | – | – | CCOC(=O)c1cc2c3c(cccc3c1)NC(=O)O2 [Compound 6, ethyl 2,3-dihydro-2-oxonaphtho[1,8-de][1,3]oxazine-8-carboxylate] | – | –
2 | – | 25 | 400 | > 1450 | > 1450 | 9 | Cc1cc(O)c(C(C)C)cc1C1(c2cc(C(C)C)c(O)cc2C)OC(=O)c2ccccc21 [Thymolphthalein, thymolphthalein] | reproducible reduction | not affected
3 | > 250 °C (dec.) | – | – | – | – | – | Nc1ccc2c(O)cc(C(=O)O)cc2c1 (as salt: hydrochloride) [Compound 1a, 7-amino-4-hydroxy-2-naphthoic acid] | – | –
4 | – | 3 | > 1000 | > 1380 | > 500 | 3.8 | Nc1cc(S(=O)(=O)O)cc2cc(S(=O)(=O)O)cc(O)c12 [H-acid] | – | –
